Experimental data: the NIST ThermoML archive (doi:10.1021/je400722h)
Numbers after ± are expanded uncertainties.

How the values were obtained:
[1] = molar heat capacity at constant pressure; xn = mol fraction of the nth substance listed; settings: 101 kPa, Liquid, Small sample (50 mg) DSC
[2] = xn = mol fraction of the nth substance listed; settings: 101 kPa, Liquid; for speed of sound: Pulse-echo method; for mass density: Vibrating tube method

Cc1ccccc1Cl [2-chlorotoluene] + C1CCOCC1
Settings | mass density [kg/m3] | molar heat capacity at constant pressure [J/K/mol] | speed of sound [m/s]
[1], 298.15 K, x1 = 0.0897 | – | 152.82 ± 2.4 | –
[1], 298.15 K, x1 = 0.1165 | – | 153.77 ± 2.4 | –
[1], 298.15 K, x1 = 0.1429 | – | 154.71 ± 2.4 | –
[1], 298.15 K, x1 = 0.1929 | – | 156.46 ± 2.4 | –
[1], 298.15 K, x1 = 0.2376 | – | 158.01 ± 2.5 | –
[1], 298.15 K, x1 = 0.2892 | – | 159.77 ± 2.5 | –
[1], 298.15 K, x1 = 0.3218 | – | 160.85 ± 2.5 | –
[1], 298.15 K, x1 = 0.3519 | – | 161.84 ± 2.5 | –
[1], 298.15 K, x1 = 0.4019 | – | 163.44 ± 2.5 | –
[1], 298.15 K, x1 = 0.4427 | – | 164.71 ± 2.5 | –
[1], 298.15 K, x1 = 0.4817 | – | 165.88 ± 2.6 | –
[1], 298.15 K, x1 = 0.5216 | – | 167.05 ± 2.6 | –
[1], 298.15 K, x1 = 0.5549 | – | 168 ± 2.6 | –
[1], 298.15 K, x1 = 0.5936 | – | 169.07 ± 2.6 | –
[1], 298.15 K, x1 = 0.6215 | – | 169.81 ± 2.6 | –
[1], 298.15 K, x1 = 0.6518 | – | 170.6 ± 2.6 | –
[1], 298.15 K, x1 = 0.6902 | – | 171.57 ± 2.7 | –
[1], 298.15 K, x1 = 0.7205 | – | 172.31 ± 2.7 | –
[1], 298.15 K, x1 = 0.7515 | – | 173.04 ± 2.7 | –
[1], 298.15 K, x1 = 0.7931 | – | 173.99 ± 2.7 | –
[1], 298.15 K, x1 = 0.8156 | – | 174.49 ± 2.7 | –
[1], 298.15 K, x1 = 0.8472 | – | 175.18 ± 2.7 | –
[1], 298.15 K, x1 = 0.8831 | – | 175.93 ± 2.7 | –
[1], 298.15 K, x1 = 0.9146 | – | 176.56 ± 2.7 | –
[1], 303.15 K, x1 = 0.0897 | – | 154.4 ± 2.4 | –
[1], 303.15 K, x1 = 0.1165 | – | 155.35 ± 2.4 | –
[1], 303.15 K, x1 = 0.1429 | – | 156.28 ± 2.4 | –
[1], 303.15 K, x1 = 0.1929 | – | 158.04 ± 2.5 | –
[1], 303.15 K, x1 = 0.2376 | – | 159.59 ± 2.5 | –
[1], 303.15 K, x1 = 0.2892 | – | 161.35 ± 2.5 | –
[1], 303.15 K, x1 = 0.3218 | – | 162.44 ± 2.5 | –
[1], 303.15 K, x1 = 0.3519 | – | 163.43 ± 2.5 | –
[1], 303.15 K, x1 = 0.4019 | – | 165.03 ± 2.6 | –
[1], 303.15 K, x1 = 0.4427 | – | 166.31 ± 2.6 | –
[1], 303.15 K, x1 = 0.4817 | – | 167.49 ± 2.6 | –
[1], 303.15 K, x1 = 0.5216 | – | 168.66 ± 2.6 | –
[1], 303.15 K, x1 = 0.5549 | – | 169.62 ± 2.6 | –
[1], 303.15 K, x1 = 0.5936 | – | 170.69 ± 2.6 | –
[1], 303.15 K, x1 = 0.6215 | – | 171.44 ± 2.7 | –
[1], 303.15 K, x1 = 0.6518 | – | 172.23 ± 2.7 | –
[1], 303.15 K, x1 = 0.6902 | – | 173.21 ± 2.7 | –
[1], 303.15 K, x1 = 0.7205 | – | 173.96 ± 2.7 | –
[1], 303.15 K, x1 = 0.7515 | – | 174.7 ± 2.7 | –
[1], 303.15 K, x1 = 0.7931 | – | 175.66 ± 2.7 | –
[1], 303.15 K, x1 = 0.8156 | – | 176.17 ± 2.7 | –
[1], 303.15 K, x1 = 0.8472 | – | 176.87 ± 2.7 | –
[1], 303.15 K, x1 = 0.8831 | – | 177.63 ± 2.8 | –
[1], 303.15 K, x1 = 0.9146 | – | 178.29 ± 2.8 | –
[1], 308.15 K, x1 = 0.0897 | – | 156.2 ± 2.4 | –
[1], 308.15 K, x1 = 0.1165 | – | 157.14 ± 2.4 | –
[1], 308.15 K, x1 = 0.1429 | – | 158.07 ± 2.5 | –
[1], 308.15 K, x1 = 0.1929 | – | 159.8 ± 2.5 | –
[1], 308.15 K, x1 = 0.2376 | – | 161.34 ± 2.5 | –
[1], 308.15 K, x1 = 0.2892 | – | 163.09 ± 2.5 | –
[1], 308.15 K, x1 = 0.3218 | – | 164.17 ± 2.5 | –
[1], 308.15 K, x1 = 0.3519 | – | 165.15 ± 2.6 | –
[1], 308.15 K, x1 = 0.4019 | – | 166.75 ± 2.6 | –
[1], 308.15 K, x1 = 0.4427 | – | 168.01 ± 2.6 | –
[1], 308.15 K, x1 = 0.4817 | – | 169.19 ± 2.6 | –
[1], 308.15 K, x1 = 0.5216 | – | 170.35 ± 2.6 | –
[1], 308.15 K, x1 = 0.5549 | – | 171.3 ± 2.6 | –
[1], 308.15 K, x1 = 0.5936 | – | 172.36 ± 2.7 | –
[1], 308.15 K, x1 = 0.6215 | – | 173.11 ± 2.7 | –
[1], 308.15 K, x1 = 0.6518 | – | 173.9 ± 2.7 | –
[1], 308.15 K, x1 = 0.6902 | – | 174.87 ± 2.7 | –
[1], 308.15 K, x1 = 0.7205 | – | 175.62 ± 2.7 | –
[1], 308.15 K, x1 = 0.7515 | – | 176.36 ± 2.7 | –
[1], 308.15 K, x1 = 0.7931 | – | 177.32 ± 2.8 | –
[1], 308.15 K, x1 = 0.8156 | – | 177.83 ± 2.8 | –
[1], 308.15 K, x1 = 0.8472 | – | 178.52 ± 2.8 | –
[1], 308.15 K, x1 = 0.8831 | – | 179.3 ± 2.8 | –
[1], 308.15 K, x1 = 0.9146 | – | 179.96 ± 2.8 | –
[2], 298.15 K, x1 = 0.1156 | 906.77 ± 1 | – | 1274.6 ± 1.1
[2], 298.15 K, x1 = 0.1765 | 920.75 ± 1 | – | 1277 ± 1.1
[2], 298.15 K, x1 = 0.2342 | 933.65 ± 1 | – | 1279.3 ± 1.1
[2], 298.15 K, x1 = 0.2765 | 942.89 ± 1 | – | 1280.9 ± 1.1
[2], 298.15 K, x1 = 0.3305 | 954.43 ± 1 | – | 1282.9 ± 1.1
[2], 298.15 K, x1 = 0.3716 | 963.04 ± 1 | – | 1284.4 ± 1.1
[2], 298.15 K, x1 = 0.4235 | 973.69 ± 1 | – | 1286.2 ± 1.1
[2], 298.15 K, x1 = 0.4721 | 983.44 ± 1 | – | 1287.9 ± 1.1
[2], 298.15 K, x1 = 0.5216 | 993.16 ± 1 | – | 1289.4 ± 1.1
[2], 298.15 K, x1 = 0.5803 | 1004.4 ± 1 | – | 1291.2 ± 1.1
[2], 298.15 K, x1 = 0.6317 | 1014.1 ± 1 | – | 1292.6 ± 1.1
[2], 298.15 K, x1 = 0.6796 | 1022.8 ± 1 | – | 1293.9 ± 1.1
[2], 298.15 K, x1 = 0.7216 | 1030.4 ± 1 | – | 1294.8 ± 1.2
[2], 298.15 K, x1 = 0.7737 | 1039.6 ± 1 | – | 1296 ± 1.2
[2], 298.15 K, x1 = 0.8219 | 1047.9 ± 1 | – | 1296.8 ± 1.2
[2], 298.15 K, x1 = 0.8753 | 1057 ± 1 | – | 1297.7 ± 1.2
[2], 298.15 K, x1 = 0.9064 | 1062.2 ± 1 | – | 1298.1 ± 1.2
[2], 298.15 K, x1 = 0.9325 | 1066.5 ± 1 | – | 1298.3 ± 1.2
[2], 303.15 K, x1 = 0.1156 | 901.67 ± 1 | – | 1252.7 ± 1
[2], 303.15 K, x1 = 0.1765 | 915.67 ± 1 | – | 1255.6 ± 1.1
[2], 303.15 K, x1 = 0.2342 | 928.57 ± 1 | – | 1258.1 ± 1.1
[2], 303.15 K, x1 = 0.2765 | 937.81 ± 1 | – | 1259.9 ± 1.1
[2], 303.15 K, x1 = 0.3305 | 949.36 ± 1 | – | 1262 ± 1.1
[2], 303.15 K, x1 = 0.3716 | 957.97 ± 1 | – | 1263.7 ± 1.1
[2], 303.15 K, x1 = 0.4235 | 968.63 ± 1 | – | 1265.7 ± 1.1
[2], 303.15 K, x1 = 0.4721 | 978.39 ± 1 | – | 1267.4 ± 1.1
[2], 303.15 K, x1 = 0.5216 | 988.12 ± 1 | – | 1269 ± 1.1
[2], 303.15 K, x1 = 0.5803 | 999.4 ± 1 | – | 1271.1 ± 1.1
[2], 303.15 K, x1 = 0.6317 | 1009.1 ± 1 | – | 1272.7 ± 1.1
[2], 303.15 K, x1 = 0.6796 | 1017.9 ± 1 | – | 1274.1 ± 1.1
[2], 303.15 K, x1 = 0.7216 | 1025.4 ± 1 | – | 1275.3 ± 1.1
[2], 303.15 K, x1 = 0.7737 | 1034.7 ± 1 | – | 1276.7 ± 1.2
[2], 303.15 K, x1 = 0.8219 | 1043 ± 1 | – | 1277.8 ± 1.2
[2], 303.15 K, x1 = 0.8753 | 1052.1 ± 1 | – | 1279 ± 1.2
[2], 303.15 K, x1 = 0.9064 | 1057.3 ± 1 | – | 1279.5 ± 1.2
[2], 303.15 K, x1 = 0.9325 | 1061.6 ± 1 | – | 1279.9 ± 1.2
[2], 308.15 K, x1 = 0.1156 | 896.57 ± 1 | – | 1230.7 ± 1
[2], 308.15 K, x1 = 0.1765 | 910.57 ± 1 | – | 1233.7 ± 1.1
[2], 308.15 K, x1 = 0.2342 | 923.48 ± 1 | – | 1236.6 ± 1.1
[2], 308.15 K, x1 = 0.2765 | 932.73 ± 1 | – | 1238.6 ± 1.1
[2], 308.15 K, x1 = 0.3305 | 944.29 ± 1 | – | 1241 ± 1.1
[2], 308.15 K, x1 = 0.3716 | 952.9 ± 1 | – | 1242.9 ± 1.1
[2], 308.15 K, x1 = 0.4235 | 963.56 ± 1 | – | 1245 ± 1.1
[2], 308.15 K, x1 = 0.4721 | 973.33 ± 1 | – | 1247 ± 1.1
[2], 308.15 K, x1 = 0.5216 | 983.08 ± 1 | – | 1249 ± 1.1
[2], 308.15 K, x1 = 0.5803 | 994.39 ± 1 | – | 1251.1 ± 1.1
[2], 308.15 K, x1 = 0.6317 | 1004.1 ± 1 | – | 1252.8 ± 1.1
[2], 308.15 K, x1 = 0.6796 | 1012.9 ± 1 | – | 1254.5 ± 1.1
[2], 308.15 K, x1 = 0.7216 | 1020.5 ± 1 | – | 1255.7 ± 1.1
[2], 308.15 K, x1 = 0.7737 | 1029.7 ± 1 | – | 1257.3 ± 1.2
[2], 308.15 K, x1 = 0.8219 | 1038.1 ± 1 | – | 1258.6 ± 1.2
[2], 308.15 K, x1 = 0.8753 | 1047.2 ± 1 | – | 1260 ± 1.2
[2], 308.15 K, x1 = 0.9064 | 1052.4 ± 1 | – | 1260.7 ± 1.2
[2], 308.15 K, x1 = 0.9325 | 1056.7 ± 1 | – | 1261.4 ± 1.2
